Numbers after ± are expanded uncertainties.
Legend:
[1] = excess molar enthalpy (molar enthalpy of mixing); xn = mol fraction of the nth substance listed; conditions: 101 kPa, Liquid
[2] = xn = mol fraction of the nth substance listed; conditions: 101 kPa, Liquid

C=C1CCC2CC1C2(C)C (stereo not drawn) [β-pinene] + CC(C)CO
Conditions	excess molar enthalpy, [1] [kcal/mol]	mass density, [2] [kg/m3]	speed of sound, [2] [m/s]
283.15 K, x1 = 0.0529	0.0158 ± 0.00167	–	–
283.15 K, x1 = 0.0566	–	815.77 ± 0.7	1248.3 ± 5.1
283.15 K, x1 = 0.1066	–	820.99 ± 0.69	1257.1 ± 5.1
283.15 K, x1 = 0.109	0.0306 ± 0.00191	–	–
283.15 K, x1 = 0.2011	–	829.88 ± 0.68	1270.2 ± 5.1
283.15 K, x1 = 0.2159	0.0605 ± 0.00263	–	–
283.15 K, x1 = 0.2931	–	837.56 ± 0.67	1281.1 ± 5.2
283.15 K, x1 = 0.3175	0.0851 ± 0.00335	–	–
283.15 K, x1 = 0.395	–	845.26 ± 0.66	1292.2 ± 5.2
283.15 K, x1 = 0.4299	0.108 ± 0.00406	–	–
283.15 K, x1 = 0.4928	–	851.82 ± 0.65	1302 ± 5.2
283.15 K, x1 = 0.5331	0.124 ± 0.00454	–	–
283.15 K, x1 = 0.6112	–	859.03 ± 0.63	1313.9 ± 5.3
283.15 K, x1 = 0.6229	0.13 ± 0.00478	–	–
283.15 K, x1 = 0.6906	–	863.45 ± 0.63	1321.1 ± 5.3
283.15 K, x1 = 0.7198	0.127 ± 0.00478	–	–
283.15 K, x1 = 0.7939	–	868.88 ± 0.62	1330.7 ± 5.3
283.15 K, x1 = 0.8249	0.111 ± 0.0043	–	–
283.15 K, x1 = 0.8682	–	872.61 ± 0.61	1337.7 ± 5.3
283.15 K, x1 = 0.9096	0.0841 ± 0.00335	–	–
283.15 K, x1 = 0.9393	–	876.05 ± 0.61	1346.2 ± 5.3
283.15 K, x1 = 0.9686	0.0672 ± 0.00287	–	–
298.15 K, x1 = 0.0481	–	803.39 ± 0.72	1195.7 ± 4.9
298.15 K, x1 = 0.0529	0.0217 ± 0.00167	–	–
298.15 K, x1 = 0.109	0.044 ± 0.00239	–	–
298.15 K, x1 = 0.1107	–	809.85 ± 0.71	1203.9 ± 4.9
298.15 K, x1 = 0.201	–	818.16 ± 0.7	1214.9 ± 5
298.15 K, x1 = 0.2159	0.0841 ± 0.00335	–	–
298.15 K, x1 = 0.2969	–	826.03 ± 0.69	1225.1 ± 5
298.15 K, x1 = 0.3175	0.115 ± 0.0043	–	–
298.15 K, x1 = 0.4002	–	833.57 ± 0.67	1235.2 ± 5
298.15 K, x1 = 0.4299	0.141 ± 0.00502	–	–
298.15 K, x1 = 0.4896	–	839.51 ± 0.67	1243.9 ± 5
298.15 K, x1 = 0.5331	0.156 ± 0.0055	–	–
298.15 K, x1 = 0.5856	–	845.33 ± 0.66	1252.2 ± 5.1
298.15 K, x1 = 0.6229	0.161 ± 0.00574	–	–
298.15 K, x1 = 0.6785	–	850.56 ± 0.65	1260.4 ± 5.1
298.15 K, x1 = 0.7198	0.152 ± 0.0055	–	–
298.15 K, x1 = 0.7841	–	856.21 ± 0.64	1270.1 ± 5.1
298.15 K, x1 = 0.8249	0.131 ± 0.00478	–	–
298.15 K, x1 = 0.8875	–	861.41 ± 0.63	1280.4 ± 5.2
298.15 K, x1 = 0.9096	0.101 ± 0.00382	–	–
298.15 K, x1 = 0.933	–	863.62 ± 0.63	1285.2 ± 5.2
298.15 K, x1 = 0.9686	0.086 ± 0.00335	–	–
303.15 K, x1 = 0.0505	–	799.78 ± 0.73	1181.7 ± 4.9
303.15 K, x1 = 0.0529	0.0275 ± 0.00215	–	–
303.15 K, x1 = 0.1044	–	805.23 ± 0.72	1188.4 ± 4.9
303.15 K, x1 = 0.109	0.0566 ± 0.00263	–	–
303.15 K, x1 = 0.2023	–	814.23 ± 0.71	1200.2 ± 4.9
303.15 K, x1 = 0.2159	0.116 ± 0.00454	–	–
303.15 K, x1 = 0.2999	–	822.12 ± 0.69	1210.6 ± 4.9
303.15 K, x1 = 0.3175	0.154 ± 0.0055	–	–
303.15 K, x1 = 0.3929	–	828.94 ± 0.68	1219.2 ± 5
303.15 K, x1 = 0.4299	0.185 ± 0.00645	–	–
303.15 K, x1 = 0.4877	–	835.22 ± 0.67	1227.7 ± 5
303.15 K, x1 = 0.5331	0.2 ± 0.00693	–	–
303.15 K, x1 = 0.6108	–	842.66 ± 0.66	1238.3 ± 5
303.15 K, x1 = 0.6229	0.204 ± 0.00717	–	–
303.15 K, x1 = 0.6829	–	846.72 ± 0.65	1244.6 ± 5.1
303.15 K, x1 = 0.7198	0.191 ± 0.00669	–	–
303.15 K, x1 = 0.7908	–	852.45 ± 0.64	1254.4 ± 5.1
303.15 K, x1 = 0.8249	0.162 ± 0.00574	–	–
303.15 K, x1 = 0.8846	–	857.17 ± 0.64	1263.9 ± 5.1
303.15 K, x1 = 0.9096	0.124 ± 0.00454	–	–
303.15 K, x1 = 0.9299	–	859.39 ± 0.63	1268.9 ± 5.1
303.15 K, x1 = 0.9686	0.103 ± 0.00406	–	–
313.15 K, x1 = 0.0401	–	790.45 ± 0.74	1143.3 ± 4.7
313.15 K, x1 = 0.0529	0.0356 ± 0.00239	–	–
313.15 K, x1 = 0.1042	–	796.91 ± 0.73	1150.9 ± 4.8
313.15 K, x1 = 0.109	0.0743 ± 0.00335	–	–
313.15 K, x1 = 0.2004	–	805.6 ± 0.7	1160.9 ± 4.8
313.15 K, x1 = 0.2159	0.141 ± 0.00526	–	–
313.15 K, x1 = 0.3012	–	813.68 ± 0.71	1170.6 ± 4.8
313.15 K, x1 = 0.3175	0.187 ± 0.00645	–	–
313.15 K, x1 = 0.3902	–	820.11 ± 0.7	1178.2 ± 4.9
313.15 K, x1 = 0.4299	0.221 ± 0.00765	–	–
313.15 K, x1 = 0.51	–	827.98 ± 0.68	1187.7 ± 4.9
313.15 K, x1 = 0.5331	0.239 ± 0.00813	–	–
313.15 K, x1 = 0.6202	–	834.55 ± 0.67	1196.8 ± 4.9
313.15 K, x1 = 0.6229	0.242 ± 0.00813	–	–
313.15 K, x1 = 0.6847	–	838.19 ± 0.67	1202.2 ± 4.9
313.15 K, x1 = 0.7198	0.225 ± 0.00765	–	–
313.15 K, x1 = 0.7768	–	843.06 ± 0.66	1210.2 ± 4.9
313.15 K, x1 = 0.8249	0.192 ± 0.00669	–	–
313.15 K, x1 = 0.8969	–	849.21 ± 0.65	1222.1 ± 5
313.15 K, x1 = 0.9096	0.147 ± 0.0055	–	–
313.15 K, x1 = 0.9601	–	852.46 ± 0.64	1230.5 ± 5
313.15 K, x1 = 0.9686	0.123 ± 0.00454	–	–
323.15 K, x1 = 0.0529	0.044 ± 0.00263	–	–
323.15 K, x1 = 0.0547	–	783.66 ± 0.76	1114.2 ± 4.7
323.15 K, x1 = 0.1021	–	788.33 ± 0.75	1119.3 ± 4.7
323.15 K, x1 = 0.109	0.0839 ± 0.00359	–	–
323.15 K, x1 = 0.207	–	797.66 ± 0.73	1129.4 ± 4.7
323.15 K, x1 = 0.2159	0.163 ± 0.00598	–	–
323.15 K, x1 = 0.2989	–	804.85 ± 0.72	1136.8 ± 4.7
323.15 K, x1 = 0.3175	0.215 ± 0.00741	–	–
323.15 K, x1 = 0.4024	–	812.32 ± 0.71	1144.6 ± 4.8
323.15 K, x1 = 0.4299	0.248 ± 0.00837	–	–
323.15 K, x1 = 0.5041	–	818.98 ± 0.7	1152.7 ± 4.8
323.15 K, x1 = 0.5331	0.273 ± 0.00932	–	–
323.15 K, x1 = 0.6074	–	825.2 ± 0.69	1160.6 ± 4.8
323.15 K, x1 = 0.6229	0.274 ± 0.00932	–	–
323.15 K, x1 = 0.6965	–	830.27 ± 0.68	1167.7 ± 4.8
323.15 K, x1 = 0.7198	0.255 ± 0.0086	–	–
323.15 K, x1 = 0.8063	–	836.02 ± 0.67	1177.1 ± 4.8
323.15 K, x1 = 0.8249	0.22 ± 0.00765	–	–
323.15 K, x1 = 0.8887	–	840.5 ± 0.66	1184.7 ± 4.9
323.15 K, x1 = 0.9096	0.169 ± 0.00598	–	–
323.15 K, x1 = 0.9618	–	844.41 ± 0.66	1192.6 ± 4.9
323.15 K, x1 = 0.9686	0.141 ± 0.00526	–	–

— the NIST ThermoML archive (doi:10.1021/je700193w)
